Earlier results in patent publication US8440245B2, “Methods for making nutritional compositions comprising curcuminoids” (priority 2009, dated 2013).

Assays:
[1] = percentage of ingested curcuminoid actually metabolized by the body
[2] = test system: microtubule assembly; details: @ 40 μm

Metabolic Recovery [1]	SMILES	Inhibition of Microtubule Assembly [2]
~75%	O=C(/C=C/c1ccc(O)cc1)CC(=O)/C=C/c1ccc(O)cc1 [BDMC, bisdemethoxycurcumin]	
~50%	COc1cc(/C=C/C(O)=C/C(=O)/C=C/c2ccc(O)cc2)ccc1O [DMC, demethoxycurcumin]	
	COc1cc(/C=C/C(=O)CC(=O)/C=C/c2ccc(O)c(OC)c2)ccc1O [Curcumin, curcumin]	50% @
